Laboratory results published in paper PMC10722238, “Development and validation of PAMPA-BBB QSAR model to predict brain penetration potential of novel drug candidates” (Frontiers in Pharmacology, 2023).

Assay: Stirring Double-Sink PAMPA-BBB permeability assay
Format: in vitro ADME, porcine
Settings: for PAMPA-BBB permeability category of control compound: control compounds used in each plate, category in words; for Papp at 60 min, 0.05 mM: pig, PAMPA, control compounds run in each plate for over 50 plates, 0.5% DMSO, phosphate buffer, room temperature, UV readout, read-out: PAMPA-BBB permeability Pe (mean ± S.D)
Text: The stirring Double-SinkTM PAMPA-BBB method patented by Pion Inc. (Billerica, MA) was employed to determine the permeability of compounds ([[…], 2013]). The PAMPA lipid membrane, which consists of porcine brain lipid extract dissolved in alkane (Pion Inc.), was optimized to predict BBB passive permeability. This membrane was immobilized on a PVDF matrix of a 96 well “acceptor” filter plate placed on top of a 96 well “donor” plate containing coated magnetic stirrers. The test articles, stocked in 10 mM DMSO solutions, were diluted to 0.05 mM in aqueous phosphate buffer and the concentration of DMSO was 0.5% in the final solution. During the 60-min permeation study period, conducted at room temperature, the test samples in the donor compartment were stirred using the Gutbox technology (Pion Inc.) to reduce the aqueous boundary layer to 60 μm. The test article concentrations in the “donor” and “acceptor” compartments were measured using a UV plate reader (Nano Quant, Infinite® 200 PRO, Tecan Inc., Männedorf, Switzerland). Permeability (Pe) calculations were performed using Pion Inc. Software and were expressed in units of 10^-6 cm/s.

PAMPA-BBB permeability category of control compound | Papp at 60 min, 0.05 mM [×10⁻⁶ cm/s] | SMILES
moderate permeability | 21 ± 2.3 | NC(=O)N1c2ccccc2C=Cc2ccccc21 [Carbamazepine, carbamazepine]
high permeability | 87 ± 10.1 | CC(=O)[C@H]1CC[C@H]2[C@@H]3CCC4=CC(=O)CC[C@]4(C)[C@H]3CC[C@]12C [Progesterone, progesterone]

SMILES | PAMPA-BBB permeability category of control compound | Papp at 60 min, 0.05 mM [×10⁻⁶ cm/s]
Cn1c(=O)c2c(ncn2C)n(C)c1=O [Caffeine, caffeine] | low permeability | < 1
